The test system of the experiment is isolated stratum corneum. The experiment can be described thus: Moisturizing potential on isolated stratum corneum by measurement with a corneometer. As to conditions: 5% by weight in 80%/20% water/n-propanol, 10 μL/cm2 on SC, 4 hours, 75% relative humidity, 25° C. As to the method:
A test was performed to evaluate the moisturizing potential of the extracts of the invention formulated in a vehicle (80%/20% water/n-propanol) in an amount of 5% by weight relative to the total weight of the composition. The technique makes it possible to measure the dielectric capacitance of the stratum corneum (SC), which depends on the mean dielectric permittivity value of the tissue. The dielectric permittivity varies greatly with the amount of water contained in the SC. The SC samples are conditioned at 75% relative humidity and at 25° C. before/during the measurements and the treatment. The capacitance measurement is performed using a CorneometerTM (Courage & Khazaka, Germany). […] Using at least two different batches of SC, four to five SC samples are measured per treatment. The variation in the corneometer signal (HCM) after treatment is calculated first for each SC sample: […]0). The mean of the DHCMi(vehicle) variations is then calculated for the control samples (treated with the vehicle): this mean value is subtracted from all the DHCMi(active agent) and DHCMi(positive control) variations to correct for the systematic bias. […]

Turning to `OCC(O)CO` [Glycerol, glycerol], the “% norm (corneometer signal variation, vehicle-corrected, normalized to glycerol)” value is listed as 100%.

For the origin of these results see US20230051563A1, “NON-ELICITED DEDIFFERENTIATED LAVANDULA ANGUSTIFOLIA PLANT CELLS, EXTRACTS THEREOF AND COSMETIC USES THEREOF” (L'OREAL, priority 2019, published 2023).
